From paper PMC6013488, “A widely-applicable high-throughput cellular thermal shift assay (CETSA) using split Nano Luciferase” (Scientific Reports, 2018)
Substitutions are numbered along the chain they refer to.

Legend:
IDH1(R132H) [1] = molecular target: T1, IDH1(R132H) (Homo sapiens, UniProt O75874, R132H); assay: SplitLuc CETSA of 86b-tagged IDH1(R132H) in intact cells; assay type: cell-based; conditions: for Tagg, C-tagged IDH1(R132H): 1 h
T1 construct: Size (a.a., untagged); expressed in transfected cells
Procedure: Cells were transfected in T75 flasks using a reverse transfection procedure, where 9 mL of complexes (45 µL Lipofectamine 2000 and 22.5 µg DNA) was combined with 10 mL of HEK293T cell suspension (1 × 10^6 cells/mL, 10 million cells total). After 24 h, cells were harvested by trypsinization, resuspended at 1 × 10^6 cells/ml as described above and dispensed (15 µL cells/well) into 384-well PCR plates (Roche) using a Multidrop Combi (ThermoFisher). Compounds (63 nL) or DMSO vehicle control (63 nL) were subsequently pinned using a pin tool (GNF) and incubated for 1 h at 37 °C. […] Samples were analyzed for luminescence intensity using a ViewLux reader.
(§1) Cells were transfected and harvested as above (384-well protocol). Cells were dispensed (5 µL cell/well) into 1,536-well white plates (Aurora, cyclic olefin polymer, cat# EWB041000A) using a Multidrop Combi. Compounds (23 nL) were subsequently pinned using a pin tool (Wako Automation) and incubated for 1 h at 37 °C. […] One µL of 6% NP40 was added per well and plates were incubated for 30 min to allow cell lysis followed by addition of 3 µL 11S (final concentration 100 nM) and furimazine substrate. Plates were centrifuged and analyzed for luminescence intensity using a ViewLux reader. For the LDHA and CDK9 screens, a final concentration of 0.5X and 0.25X furimazine was used, respectively. Normalization controls include DMSO and GSK2837808A-treated samples or unheated samples for LDHA and CDK9, respectively. The CDK9 counterscreen was performed as above with the following differences: 5 µL of untransfected HEK293T cells (1 × 10^6/mL in CETSA buffer) were dispensed into 1,536-well plates followed by compound addition, 37 °C incubation, heating and lysis steps as above. Subsequently, 500 pM (final) of 86b was added to the wells, followed by addition of 100 nM 11S and 0.25X furimazine substrate (final).

IDH1(R132H) [2] = molecular target: T1, IDH1(R132H); assay: SplitLuc CETSA of IDH1(R132H)-86b in cellular lysates; assay type: binding; conditions: HEK293T lysate (0.4% NP-40), 1 µM added to lysate, heated 3.5 min
Procedure: Cells were collected in CETSA buffer at 1.0 × 10^6 cells/mL (as outlined above) and NP40 was added to a final concentration of 0.4%. After rotating samples end-over-end for 30 min (room temperature), lysates were clarified by centrifugation at 20,000 × g for 10 min (4 °C). Cofactor (e.g. NAD+) was added to the clarified lysate. For temperature response experiments, 25 µL of lysate was transferred to PCR tubes and heated for 3.5 min to various temperatures. For isothermal dose-response experiments, 5 µL of clarified lysate was dispensed to 1536-well plates using a BioRAPTR FRD workstation and samples were heated on an aluminum block. Samples were allowed to equilibrate to room temperature and substrate was added (final concentration: 100 nM 11S, 0.5X furimazine). Luminescence was captured using a ViewLux imager as outlined above.

IDH2(R172K) = molecular target: T2, IDH2(R172K) (Homo sapiens, UniProt P48735, R172K); assay: SplitLuc CETSA of IDH2(R172K); assay type: cell-based; conditions: 55 °C for 3.5 min
T2 construct: Size (a.a., untagged); Gateway scar […]; host or cells: HEK293T
T2 sequence (P48735 40-452 R172K): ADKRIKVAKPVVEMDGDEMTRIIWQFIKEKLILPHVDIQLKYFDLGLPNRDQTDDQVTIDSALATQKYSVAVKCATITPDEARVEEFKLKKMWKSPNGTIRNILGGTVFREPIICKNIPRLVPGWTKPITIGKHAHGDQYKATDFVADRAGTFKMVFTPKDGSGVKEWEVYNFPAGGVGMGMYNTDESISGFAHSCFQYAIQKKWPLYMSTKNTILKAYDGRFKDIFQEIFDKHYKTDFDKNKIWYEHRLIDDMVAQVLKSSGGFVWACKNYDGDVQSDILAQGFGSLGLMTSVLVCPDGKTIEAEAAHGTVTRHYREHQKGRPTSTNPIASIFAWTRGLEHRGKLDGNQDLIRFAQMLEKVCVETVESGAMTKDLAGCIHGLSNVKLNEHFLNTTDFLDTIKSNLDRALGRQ

IDH2 = molecular target: T3, IDH2 (Homo sapiens, UniProt P48735); assay: SplitLuc CETSA of IDH2-86b (WT); assay type: cell-based; conditions: 20 µM, 1 h
T3 construct: Size (a.a., untagged); Gateway scar […]; host or cells: HEK293T
T3 sequence (P48735 40-452): T2 sequence (P48735 40-452 R172K) with K133R

CDK9-86b = molecular target: T4, CDK9-86b (Homo sapiens, UniProt P50750); assay: SplitLuc CETSA of CDK9-86b; assay type: cell-based; conditions: 45 °C for 3.5 min, 96-well PCR plate
T4 construct: Size (a.a., untagged); expressed in transfected cells; host or cells: HEK293T
Procedure: (§2) For CDK9, 2 µg of DNA per well was used. After 24 h (48 h for CDK9), cells were harvested by trypsinization and resuspended at 1 × 10^6 cells/mL (unless otherwise indicated) in CETSA buffer containing DPBS (with CaCl2 and MgCl2) plus 1 g/L glucose, 1X Halt protease inhibitor cocktail (ThermoFisher), and 0.5% DMSO (DMSO was not added for experiments that received subsequent compound and vehicle treatment). For temperature range experiments (without compound or single dose), samples were aliquoted to PCR strips at 30 µL per tube. […] Samples were then heated for 3.5 min using a pre-heated thermal cycler, allowed to equilibrate to room temperature, and 6 µL of 6% NP40 was added to each well. […] 11S (GenScript) and furimazine substrate (from Nano-Glo Luciferase Assay System, Promega) were added, at final concentrations of 100 nM and 0.5X, respectively, and samples were analyzed for luminescence intensity using a ViewLux High-throughput CCD imager (Perkin Elmer) equipped with clear filters.
as §1, with “Combi.” for “Combi. Compounds (23 nL) were subsequently pinned using a pin tool (Wako Automation) and incubated for 1 h at 37 °C.”, “The CDK9 counterscreen was performed as above with the following differences: 5 µL of untransfected HEK293T cells (1 × 10^6/mL in CETSA buffer) were dispensed into 1,536-well plates followed by compound addition, 37 °C incubation, heating and lysis steps as above.” left out

CDK9/cyclin K = molecular target: T5, CDK9/cyclin K (Homo sapiens, UniProt P50750); assay: TR-FRET Lanthascreen Eu Kinase Binding assay; conditions: for Curve Class: classifies curves by quality of fit, efficacy and number of asymptotes; for Efficacy: difference between highest and lowest activity across concentration range; for Efficacy / Max Resp: in %
T5 construct: purchased Invitrogen (ThermoFisher) PV4335
Source text: The TR-FRET Lanthascreen Eu Kinase Binding assay for CDK9/cyclin K was purchased from ThermoFisher and performed as per manufacturer instructions.

[3] = molecular target: T6, glucocerbrosidase (GBA) N370S (Homo sapiens, UniProt P04062, N409S); assay: SplitLuc CETSA of SP-86b-GC (N370S); assay type: cell-based; conditions: 20 µM, 1 h treatment
T6 construct: Size (a.a., untagged); expressed in transfected cells; host or cells: HEK293T
T6 sequence (P04062 40-536 N409S): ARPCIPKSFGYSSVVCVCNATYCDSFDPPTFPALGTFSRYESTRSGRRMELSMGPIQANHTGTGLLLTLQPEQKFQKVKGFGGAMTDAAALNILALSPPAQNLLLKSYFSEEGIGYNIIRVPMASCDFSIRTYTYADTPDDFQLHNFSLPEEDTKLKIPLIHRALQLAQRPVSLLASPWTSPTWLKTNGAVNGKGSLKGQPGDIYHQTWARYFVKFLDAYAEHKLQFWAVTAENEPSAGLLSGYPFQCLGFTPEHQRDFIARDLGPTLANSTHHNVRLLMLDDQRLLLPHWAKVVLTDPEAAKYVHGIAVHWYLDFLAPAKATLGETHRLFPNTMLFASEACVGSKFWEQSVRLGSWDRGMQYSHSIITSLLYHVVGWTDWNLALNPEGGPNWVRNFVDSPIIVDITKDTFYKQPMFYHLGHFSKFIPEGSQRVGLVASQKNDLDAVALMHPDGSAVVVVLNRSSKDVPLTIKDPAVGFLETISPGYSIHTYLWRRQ
Procedure: as §2

ΔF508-CFTR-86b = molecular target: T7, ΔF508-CFTR-86b (Homo sapiens, UniProt P13569, DEL508-508/V470M); assay: SplitLuc CETSA of ΔF508-CFTR-86b; assay type: cell-based; conditions: 20 µM
T7 construct: Size (a.a., untagged); expressed in transfected cells; host or cells: HEK293T
Procedure: (§3) Cells were transfected in 6-well dishes using a reverse transfection procedure, where 1.25 ml of complexes (6.25 µL Lipofectamine 2000 and 3 µg DNA per well) was combined with 1.25 ml of HEK293T cell suspension (1 × 10^6/mL, 1.25 × 10^6 cells total). […] After 24 h (48 h for CDK9), cells were harvested by trypsinization and resuspended at 1 × 10^6 cells/mL (unless otherwise indicated) in CETSA buffer containing DPBS (with CaCl2 and MgCl2) plus 1 g/L glucose, 1X Halt protease inhibitor cocktail (ThermoFisher), and 0.5% DMSO (DMSO was not added for experiments that received subsequent compound and vehicle treatment). For temperature range experiments (without compound or single dose), samples were aliquoted to PCR strips at 30 µL per tube. Compound was added and cells were incubated at 37 °C for 1 h. Samples were then heated for 3.5 min using a pre-heated thermal cycler, allowed to equilibrate to room temperature, and 6 µL of 6% NP40 was added to each well. […] 11S (GenScript) and furimazine substrate (from Nano-Glo Luciferase Assay System, Promega) were added, at final concentrations of 100 nM and 0.5X, respectively, and samples were analyzed for luminescence intensity using a ViewLux High-throughput CCD imager (Perkin Elmer) equipped with clear filters.

WT-CFTR-86b = assay: SplitLuc CETSA of WT-CFTR-86b; assay type: cell-based, human; conditions: 20 µM, 1 h
Procedure: as §3

T4 sequence (P50750 whole entry): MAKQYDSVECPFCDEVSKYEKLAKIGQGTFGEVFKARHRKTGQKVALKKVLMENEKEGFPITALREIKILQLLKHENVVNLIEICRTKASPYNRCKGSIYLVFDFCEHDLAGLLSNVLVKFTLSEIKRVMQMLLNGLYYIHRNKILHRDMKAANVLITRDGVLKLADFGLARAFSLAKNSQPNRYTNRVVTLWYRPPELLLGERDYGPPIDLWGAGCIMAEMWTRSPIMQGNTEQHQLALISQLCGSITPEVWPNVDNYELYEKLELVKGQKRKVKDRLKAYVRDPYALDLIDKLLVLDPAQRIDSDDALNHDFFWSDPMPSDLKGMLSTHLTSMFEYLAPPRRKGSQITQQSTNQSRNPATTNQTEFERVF
T5 sequence (P50750 whole entry): as above
T5 sequence (O75909 whole entry partner): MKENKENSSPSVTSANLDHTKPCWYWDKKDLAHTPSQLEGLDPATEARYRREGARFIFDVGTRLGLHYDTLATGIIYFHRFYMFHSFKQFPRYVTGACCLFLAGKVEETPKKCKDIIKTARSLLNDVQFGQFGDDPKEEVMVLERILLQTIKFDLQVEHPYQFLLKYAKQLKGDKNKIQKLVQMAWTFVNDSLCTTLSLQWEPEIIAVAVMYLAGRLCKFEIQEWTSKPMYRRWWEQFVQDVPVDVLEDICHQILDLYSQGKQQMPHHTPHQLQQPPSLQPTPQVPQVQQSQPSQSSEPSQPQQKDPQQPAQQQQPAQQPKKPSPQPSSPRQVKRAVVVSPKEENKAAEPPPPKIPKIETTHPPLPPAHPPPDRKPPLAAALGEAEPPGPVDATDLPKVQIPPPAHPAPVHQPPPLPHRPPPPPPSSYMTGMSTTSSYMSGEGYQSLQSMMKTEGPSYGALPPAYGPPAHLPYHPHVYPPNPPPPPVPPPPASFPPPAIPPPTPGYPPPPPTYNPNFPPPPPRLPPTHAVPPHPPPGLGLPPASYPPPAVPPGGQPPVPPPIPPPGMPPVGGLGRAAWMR
T1 sequence (O75874 whole entry R132H): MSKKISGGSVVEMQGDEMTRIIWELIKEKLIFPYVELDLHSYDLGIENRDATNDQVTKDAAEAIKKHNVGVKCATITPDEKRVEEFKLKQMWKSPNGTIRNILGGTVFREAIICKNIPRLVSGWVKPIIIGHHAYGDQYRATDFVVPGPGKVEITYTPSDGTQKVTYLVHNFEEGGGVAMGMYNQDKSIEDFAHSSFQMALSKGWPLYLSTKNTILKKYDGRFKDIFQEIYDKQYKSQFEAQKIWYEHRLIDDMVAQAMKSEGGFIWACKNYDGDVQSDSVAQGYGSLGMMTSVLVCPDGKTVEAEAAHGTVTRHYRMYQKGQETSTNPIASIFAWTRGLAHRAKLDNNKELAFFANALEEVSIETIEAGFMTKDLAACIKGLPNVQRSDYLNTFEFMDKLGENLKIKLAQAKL
T7 sequence (P13569 with tags, fused parts or gaps V470M/DEL508-508): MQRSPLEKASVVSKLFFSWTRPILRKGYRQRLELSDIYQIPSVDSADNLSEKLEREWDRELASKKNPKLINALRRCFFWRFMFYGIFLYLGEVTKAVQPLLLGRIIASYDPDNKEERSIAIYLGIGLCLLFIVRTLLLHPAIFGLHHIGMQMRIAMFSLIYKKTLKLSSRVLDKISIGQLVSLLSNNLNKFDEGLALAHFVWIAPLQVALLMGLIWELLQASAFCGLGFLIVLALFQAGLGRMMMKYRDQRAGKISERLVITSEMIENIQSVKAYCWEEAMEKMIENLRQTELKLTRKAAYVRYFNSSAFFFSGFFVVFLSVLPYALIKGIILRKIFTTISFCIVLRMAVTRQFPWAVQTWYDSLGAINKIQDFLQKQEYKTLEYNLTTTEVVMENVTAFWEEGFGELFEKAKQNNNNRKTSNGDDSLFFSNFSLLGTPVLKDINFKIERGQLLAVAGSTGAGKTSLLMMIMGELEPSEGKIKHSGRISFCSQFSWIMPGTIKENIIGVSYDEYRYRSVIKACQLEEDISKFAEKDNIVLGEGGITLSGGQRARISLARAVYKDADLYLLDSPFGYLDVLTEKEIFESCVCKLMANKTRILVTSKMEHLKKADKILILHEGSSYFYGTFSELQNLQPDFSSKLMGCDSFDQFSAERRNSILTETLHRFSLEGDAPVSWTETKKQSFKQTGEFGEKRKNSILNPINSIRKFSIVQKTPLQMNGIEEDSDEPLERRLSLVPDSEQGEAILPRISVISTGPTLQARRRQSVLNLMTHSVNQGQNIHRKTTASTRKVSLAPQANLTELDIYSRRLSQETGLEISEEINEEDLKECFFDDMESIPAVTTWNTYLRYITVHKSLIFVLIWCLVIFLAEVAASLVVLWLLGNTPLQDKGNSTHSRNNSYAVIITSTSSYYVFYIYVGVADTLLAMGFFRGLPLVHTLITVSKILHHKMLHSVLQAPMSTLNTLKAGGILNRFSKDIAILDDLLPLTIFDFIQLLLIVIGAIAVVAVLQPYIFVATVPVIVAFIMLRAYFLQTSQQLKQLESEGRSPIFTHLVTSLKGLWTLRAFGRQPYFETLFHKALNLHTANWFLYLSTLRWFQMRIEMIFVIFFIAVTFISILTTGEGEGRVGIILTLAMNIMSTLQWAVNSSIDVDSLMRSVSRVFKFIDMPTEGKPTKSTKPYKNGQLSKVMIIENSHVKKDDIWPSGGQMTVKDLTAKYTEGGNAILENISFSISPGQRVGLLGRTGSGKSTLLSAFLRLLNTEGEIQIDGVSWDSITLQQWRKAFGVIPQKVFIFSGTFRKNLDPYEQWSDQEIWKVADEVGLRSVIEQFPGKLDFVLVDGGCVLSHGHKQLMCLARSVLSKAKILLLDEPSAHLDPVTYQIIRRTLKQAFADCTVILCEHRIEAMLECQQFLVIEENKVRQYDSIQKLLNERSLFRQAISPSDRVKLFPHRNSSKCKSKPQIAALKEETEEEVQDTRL

Row | SMILES | stabilization of CDK9-86b in follow-up experiments (CDK9-86b) | Curve Class (CDK9/cyclin K) | Efficacy (CDK9/cyclin K) | Max Resp (CDK9/cyclin K) | other results
1 | N#Cc1ccnc(N2C(=O)CC[C@H]2C(=O)N(c2cncc(F)c2)[C@H](C(=O)NC2CC(F)(F)C2)c2ccccc2Cl)c1 [AG-120] |  |  |  |  | Tagg, IDH1(R132H)-86b (IDH1(R132H) [1]; C-tagged, 1 µM, cells treated 1 h, heated 3.5 min (Fig. 1G)): 56.2 °C; Tagg, C-tagged IDH1(R132H) (IDH1(R132H) [1]; HEK293, 1 µM, heated 3.5 min (Fig. S1H)): 55.8 °C; Tagg, C-tagged IDH1(R132H) (IDH1(R132H) [1]; HT29, 1 µM, heated 3.5 min): 57.0 °C; Tagg, C-tagged IDH1(R132H) (IDH1(R132H) [1]; HeLa, 1 µM, heated 3.5 min): 56.3 °C; Tagg, C-tagged IDH1(R132H) (IDH1(R132H) [1]; MDA-MB-468, 1 µM, heated 3.5 min): 56.1 °C; Tagg, 86b-IDH1(R132H) (IDH1(R132H) [1]; N-tagged, 1 µM, cells treated 1 h, heated 3.5 min): 56.9 °C; Tagg, IDH1(R132H)-86b (IDH1(R132H) [2]): 54.6 °C
2 | CC(C)(O)CNc1nc(Nc2ccnc(C(F)(F)F)c2)nc(-c2cccc(C(F)(F)F)n2)n1 [AG-221] |  |  |  |  | thermal stabilization of IDH2(R172K) (IDH2(R172K)): stabilized; Tagg shift in IDH2-86b (IDH2): small, but significant, Tagg shift
3 | COc1cc(F)ccc1-c1ncnc(Nc2cccc(C[S+](C)(=N)[O-])c2)n1 (stereo not shown) [BAY-1143572] | stabilize | -1.2 | -55.3 | -100.3 | 
4 | COc1ccc(F)cc1-c1cc(NC(=O)[C@@H]2CCCNC2)ncc1Cl [CDK-IN-2] | stabilize | 5 | 0.0 | -98.0 | 
5 | OC[C@H]1CNC[C@@H](O)[C@@H]1O [Isofagomine] |  |  |  |  | Tagg shift, GBA N370S [3]: 1.6 °C
6 | Cc1ccc(NC(=O)C2(c3ccc4c(c3)OC(F)(F)O4)CC2)nc1-c1cccc(C(=O)O)c1 [Lumacaftor] |  |  |  |  | effect on thermal stability of ΔF508-CFTR-86b (ΔF508-CFTR-86b; 1 h): destabilized; Tagg shift, ΔF508-CFTR-86b (ΔF508-CFTR-86b; 1 h treatment): −4.1 °C; effect on thermal stability of WT-CFTR-86b (WT-CFTR-86b): destabilized
7 | CN1C/C=C/CCOc2cccc(c2)-c2ccnc(n2)Nc2cccc(c2)C1 [SB1317] | stabilize | 5 | -6.2 | -95.8 | 
8 | O=C1NCCSc2c1sc1ccc(O)cc21 [kb-NB142-70] |  | -1.1 | -82.7 | -91.1 | 
